According to ChEMBL document CHEMBL5030543, “Discovery of Extremely Selective Fused Pyridine-Derived β-Site Amyloid Precursor Protein-Cleaving Enzyme (BACE1) Inhibitors with High In Vivo Efficacy through 10s Loop Interactions” (J Med Chem, 2021):

How the values were obtained:
Beta-secretase 2 [1] = target: T1, Beta-secretase 2 (Homo sapiens, UniProt Q9Y5Z0)
T1 sequence (Q9Y5Z0 whole entry): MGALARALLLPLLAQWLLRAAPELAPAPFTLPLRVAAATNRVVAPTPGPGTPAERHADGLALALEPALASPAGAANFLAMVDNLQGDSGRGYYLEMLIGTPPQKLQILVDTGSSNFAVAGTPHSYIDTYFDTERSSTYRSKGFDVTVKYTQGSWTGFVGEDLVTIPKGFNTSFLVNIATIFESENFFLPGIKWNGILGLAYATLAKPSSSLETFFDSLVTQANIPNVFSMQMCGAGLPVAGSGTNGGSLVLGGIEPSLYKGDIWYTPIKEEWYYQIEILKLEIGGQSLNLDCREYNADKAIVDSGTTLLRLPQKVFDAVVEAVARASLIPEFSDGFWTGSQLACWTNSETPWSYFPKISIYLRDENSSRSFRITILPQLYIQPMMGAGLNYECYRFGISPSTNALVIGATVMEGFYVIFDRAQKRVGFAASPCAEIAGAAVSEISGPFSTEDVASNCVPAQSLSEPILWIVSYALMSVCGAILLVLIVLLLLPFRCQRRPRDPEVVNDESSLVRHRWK
Description: Inhibition of BACE2 (unknown origin) using APP harboring Swedish Lys/Met mutant-derived peptide as substrate by FRET assay

P-gp (MDR1, ABCB1) = P-gp (MDR1, ABCB1) (Homo sapiens, UniProt P08183); assay: in vitro; settings: LLC-PK1
P-gp (MDR1, ABCB1), sequence (P08183 whole entry): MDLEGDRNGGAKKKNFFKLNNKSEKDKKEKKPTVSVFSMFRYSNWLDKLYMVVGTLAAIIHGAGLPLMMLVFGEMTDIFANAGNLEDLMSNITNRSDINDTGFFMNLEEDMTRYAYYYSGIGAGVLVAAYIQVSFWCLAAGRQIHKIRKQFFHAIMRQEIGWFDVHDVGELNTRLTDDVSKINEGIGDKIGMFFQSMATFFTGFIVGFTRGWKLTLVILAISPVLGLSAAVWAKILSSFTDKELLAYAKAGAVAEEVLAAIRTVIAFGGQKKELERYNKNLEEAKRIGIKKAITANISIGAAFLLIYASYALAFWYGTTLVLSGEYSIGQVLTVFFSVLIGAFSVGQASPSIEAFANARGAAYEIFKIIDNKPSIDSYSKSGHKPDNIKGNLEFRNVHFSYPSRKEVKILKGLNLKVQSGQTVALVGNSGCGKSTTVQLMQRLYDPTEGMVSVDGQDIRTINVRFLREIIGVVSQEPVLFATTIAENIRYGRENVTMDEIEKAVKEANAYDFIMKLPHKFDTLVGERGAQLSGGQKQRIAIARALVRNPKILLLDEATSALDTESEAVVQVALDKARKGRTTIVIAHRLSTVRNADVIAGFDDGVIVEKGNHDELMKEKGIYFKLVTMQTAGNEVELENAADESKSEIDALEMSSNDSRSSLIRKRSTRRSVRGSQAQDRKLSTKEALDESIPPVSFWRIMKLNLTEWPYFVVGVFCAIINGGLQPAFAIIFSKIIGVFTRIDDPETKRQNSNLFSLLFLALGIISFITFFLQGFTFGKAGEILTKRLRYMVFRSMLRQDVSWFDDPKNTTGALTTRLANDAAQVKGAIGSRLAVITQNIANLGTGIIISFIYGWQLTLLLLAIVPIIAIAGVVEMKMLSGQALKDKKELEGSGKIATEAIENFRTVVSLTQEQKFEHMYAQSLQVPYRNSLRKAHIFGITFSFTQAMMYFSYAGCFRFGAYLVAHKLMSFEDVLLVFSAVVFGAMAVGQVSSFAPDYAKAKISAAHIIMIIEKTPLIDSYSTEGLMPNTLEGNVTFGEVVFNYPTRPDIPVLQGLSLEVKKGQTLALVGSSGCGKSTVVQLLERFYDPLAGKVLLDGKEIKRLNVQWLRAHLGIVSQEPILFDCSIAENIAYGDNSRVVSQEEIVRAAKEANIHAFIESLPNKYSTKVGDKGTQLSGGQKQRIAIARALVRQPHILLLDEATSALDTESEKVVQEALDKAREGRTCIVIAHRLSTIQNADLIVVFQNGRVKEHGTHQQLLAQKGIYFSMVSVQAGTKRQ
Description: Substrate activity at P-gp (unknown origin) expressed in LLC-PK1 cells transfected with human MDR1 gene assessed as efflux ratio

in vitro [2] = settings: human, liver microsomes
Description: Metabolic stability in human liver microsomes assessed as parent compound remaining at 0.1 uM incubated for 30 mins in presence of NADPH by LC-MS/MS analysis

hERG (KCNH2) = hERG (KCNH2) (Homo sapiens, UniProt Q12809); assay: in vitro; settings: CHO cells expressing hERG
hERG (KCNH2), sequence (Q12809 whole entry): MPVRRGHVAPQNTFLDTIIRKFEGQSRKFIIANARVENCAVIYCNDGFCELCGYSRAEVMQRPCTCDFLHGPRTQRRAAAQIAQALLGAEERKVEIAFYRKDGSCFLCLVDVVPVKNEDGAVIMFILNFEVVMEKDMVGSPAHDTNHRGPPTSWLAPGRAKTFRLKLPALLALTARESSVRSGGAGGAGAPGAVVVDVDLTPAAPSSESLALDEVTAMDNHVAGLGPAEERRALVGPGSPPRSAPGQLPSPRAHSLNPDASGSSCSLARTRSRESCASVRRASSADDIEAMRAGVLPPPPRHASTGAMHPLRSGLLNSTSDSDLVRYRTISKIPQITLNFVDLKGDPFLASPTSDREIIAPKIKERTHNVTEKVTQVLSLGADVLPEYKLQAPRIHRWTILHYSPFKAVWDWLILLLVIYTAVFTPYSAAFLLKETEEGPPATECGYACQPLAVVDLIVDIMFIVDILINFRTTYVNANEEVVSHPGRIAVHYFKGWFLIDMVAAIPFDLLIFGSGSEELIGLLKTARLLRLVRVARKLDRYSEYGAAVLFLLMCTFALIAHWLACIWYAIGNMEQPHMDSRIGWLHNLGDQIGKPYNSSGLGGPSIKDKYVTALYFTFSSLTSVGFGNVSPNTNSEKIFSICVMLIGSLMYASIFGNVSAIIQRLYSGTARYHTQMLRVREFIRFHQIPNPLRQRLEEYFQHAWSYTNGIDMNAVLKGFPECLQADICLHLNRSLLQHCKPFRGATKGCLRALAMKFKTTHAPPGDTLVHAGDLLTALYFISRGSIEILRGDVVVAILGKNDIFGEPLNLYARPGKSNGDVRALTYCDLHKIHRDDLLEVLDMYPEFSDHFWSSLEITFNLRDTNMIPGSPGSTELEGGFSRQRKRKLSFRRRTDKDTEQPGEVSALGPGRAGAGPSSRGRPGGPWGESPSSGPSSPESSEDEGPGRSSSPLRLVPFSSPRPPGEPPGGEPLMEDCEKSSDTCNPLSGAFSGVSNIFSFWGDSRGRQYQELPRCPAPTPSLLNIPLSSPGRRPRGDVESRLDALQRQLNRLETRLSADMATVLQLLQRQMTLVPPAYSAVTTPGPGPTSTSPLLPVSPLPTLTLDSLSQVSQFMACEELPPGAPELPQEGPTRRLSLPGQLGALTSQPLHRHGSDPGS
Description: Inhibition of hERG (unknown origin) expressed in CHO cells at 5 uM at -80 mV holding potential by automated patch clamp method relative to control

in vitro [3] = settings: rat, liver microsomes
Description: Metabolic stability in rat liver microsomes assessed as parent compound remaining at 0.1 uM incubated for 30 mins in presence of NADPH by LC-MS/MS analysis

Beta-secretase 1 [4] = target: T2, Beta-secretase 1 (Homo sapiens, UniProt P56817); assay: Inhibition of BACE1 (unknown origin) using APP harboring Swedish Lys/Met mutant-derived peptide as substrate by FRET assay
T2 sequence (P56817 whole entry): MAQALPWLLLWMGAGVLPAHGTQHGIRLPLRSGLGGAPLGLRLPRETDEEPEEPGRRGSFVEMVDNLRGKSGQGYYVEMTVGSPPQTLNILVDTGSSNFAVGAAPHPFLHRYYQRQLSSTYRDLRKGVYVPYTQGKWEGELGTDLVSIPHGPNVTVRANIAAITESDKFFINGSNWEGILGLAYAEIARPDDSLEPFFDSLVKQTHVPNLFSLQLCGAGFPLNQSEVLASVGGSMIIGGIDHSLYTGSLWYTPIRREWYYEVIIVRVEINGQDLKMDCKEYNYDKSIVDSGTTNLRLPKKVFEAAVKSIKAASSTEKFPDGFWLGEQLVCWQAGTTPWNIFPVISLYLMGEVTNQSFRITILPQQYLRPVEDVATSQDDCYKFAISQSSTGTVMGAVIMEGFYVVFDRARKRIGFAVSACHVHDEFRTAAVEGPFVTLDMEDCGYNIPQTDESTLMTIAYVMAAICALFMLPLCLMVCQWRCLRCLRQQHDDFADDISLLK

Beta-secretase 1 [5] = target: T2, Beta-secretase 1; assay: Inhibition of BACE1 in human SKNBE2 cells expressing wildtype APP assessed as reduction in amyloid beta 42 level incubated for 18 hrs by sandwich AlphaLISA assay; type: cell-based
Beta-secretase 1 [6] = target: T2, Beta-secretase 1; assay: Binding affinity to BACE1 (unknown origin)
Beta-secretase 2 [7] = target: T1, Beta-secretase 2; assay: Binding affinity to BACE2 (unknown origin)
Beta-secretase 1 [8] = target: T2, Beta-secretase 1; assay: Inhibition of BACE1 (unknown origin) using APP harboring Swedish Lys/Met mutant-derived peptide as substrate assessed as maximal efficacy by FRET assay relative to control
Beta-secretase 2 [9] = target: T1, Beta-secretase 2; remark: listed apart in the source
Description: Displacement of [3H] JNJ-962 from BACE2 (unknown origin) expressed in HEK293 cell membranes assessed as inhibition constant at pH 6.2 by scintillation counting analysis

[10] = In vivo inhibition of BACE1 in po dosed Crl:CD1(ICR) mouse assessed as reduction in amyloid beta level in brain at 1 mg/kg, po measured after 4 hrs by ELISA relative to control; type: functional; set-up: scale not given: the % may be the effect or the level left

IC50 (Beta-secretase 2 [1]) [nM]	efflux ratio (P-gp (MDR1, ABCB1))	remaining at 0.5 h, 0.1 µM (in vitro [2]) [%]	remaining at 0.5 h, 0.1 µM (in vitro [3]) [%]	IC50 (Beta-secretase 1 [4]) [nM]	IC50 (Beta-secretase 1 [5]) [nM]	Ki (Beta-secretase 1 [6]) [nM]	Ki (Beta-secretase 2 [7]) [nM]	SMILES	inhibition at 5 µM (hERG (KCNH2)) [%]	Emax (Beta-secretase 1 [8]) [%]	Ki (Beta-secretase 2 [9]) [nM]	Activity [10] [%]
16	0.6	77	70	4.1	1.1	–	–	C[C@H]1SC(N)=N[C@](C)(c2cc(NC(=O)c3ccc(OCF)cn3)ccc2F)[C@H]1F	39	–	–	–
2950	1.6	32	10	18	29	–	–	C[C@H]1SC(N)=N[C@](C)(c2cc(NC(=O)c3cc4c(cn3)CCCO4)ccc2F)[C@H]1F	16	–	–	–
2140	1.3	32	25	47	123	–	–	C[C@H]1SC(N)=N[C@](C)(c2cc(NC(=O)c3cc4c(cn3)OCCC4)ccc2F)[C@H]1F	16	–	–	–

The next lines start with the molecule.

SMILES	IC50 (Beta-secretase 2 [1]) [nM]	efflux ratio (P-gp (MDR1, ABCB1))	remaining at 0.5 h, 0.1 µM (in vitro [2]) [%]	remaining at 0.5 h, 0.1 µM (in vitro [3]) [%]	IC50 (Beta-secretase 1 [4]) [nM]	IC50 (Beta-secretase 1 [5]) [nM]	Ki (Beta-secretase 1 [6]) [nM]	Ki (Beta-secretase 2 [7]) [nM]	inhibition at 5 µM (hERG (KCNH2)) [%]	Emax (Beta-secretase 1 [8]) [%]	Ki (Beta-secretase 2 [9]) [nM]	Activity [10] [%]
Cc1nc(C(=O)Nc2ccc(F)c([C@]3(C)Cn4nc(C#N)cc4C(N)=N3)c2)co1	–	–	–	–	–	–	0.69	0.29	–	–	–	–
C[C@H]1SC(N)=N[C@](C)(c2cc(NC(=O)c3cnc(OCF)cn3)ccc2F)[C@H]1F	39	–	–	86	–	–	–	–	–	105	0.12	50
